{
  "source": "patent US7488718B2",
  "about": "“Synthetic HLA binding peptide analogues and uses thereof” (Sloan Kettering Institue for Cancer Research, priority 2003, dated 2009)",
  "key": {"[1]": {"test_system": "HLA matched chronic myelogenous leukemia cell lines or CML blasts", "conditions": "T cells generated with analogue peptide", "experimental": "Supernatant fluids were harvested and radioactivity was measured in a gamma counter. Percent specific lysis was determined from the following formula: 100×[(experimental release minus spontaneous release)/(maximum release minus spontaneous release)]."}, "CD8+ T cells": {"test_system": "CD8+ T cells", "test": "Gamma interferon ELISPOT, CD8+ T cells after in vitro peptide stimulation", "assay_type": "cell-based, human", "conditions": "healthy HLA A0201 donors, peptide-pulsed T2 targets"}, "[2]": {"target": "T1, HLA-A0201 molecules on T2 cells (Homo sapiens, UniProt P04439, D140Y/D185E/D98H/E176V/E277Q/G131W/G231S/I119V/I121R/I166T/I218V/L300P/L318F/N151K/N90K/P208A/P217A/Q86G/Q94H/R138H/R169H/T345S)", "T1 construct": "increase in the level of surface HLA-A0201 recognizable by specific mAb such as BB7.2; endogenous in cells; host or cells: T2 cells (human, TAP-deficient, HLA-A0201+)", "test": "T2 assay for peptide binding to HLA A0201", "conditions": "for binding to HLA A0201 molecules in T2 assay: bcr-abl b3a2 and b2a2 peptides", "experimental": "T2 cells (TAP−, HLA-A0201 +) were incubated overnight at 27° C. at 1×10E6 cells/ml in FCS-free RPMI medium supplemented with 5 μg/ml human β2 m (Sigma, St Louis, Mo.) in the absence, i.e., negative control, or presence of either a positive reference tyrosinase peptide or test peptides at various final concentrations of 50, 10, 1, and 0.1 μg/ml. Following a 4 h incubation with 5 μg/ml brefeldin A (Sigma), T2 cells were labeled for 30 min at 4° C. with a saturating concentration of anti-HLA-A2.1 (BB7.2) mAb, then washed twice. The cells then were incubated for 30 min at 4° C. with a saturating concentration of FITC-conjugated goat IgG F(ab′)2 anti-mouse Ig (Caltag, South San Francisco, Calif.), washed twice, fixed in PBS/1% paraformaldehyde and analyzed using a FACS Calibur cytofluorometer (Becton Dickinson, Immunocytometry systems, San Jose, Calif.).\nThe mean intensity of fluorescence (MIF) observed for each peptide concentration, after subtraction of the MIF observed without peptide, was used as an estimate of peptide binding. Stabilization assays were performed similarly. Following initial evaluation of peptide binding at time 0, cells were washed in RPMI complete medium to remove free peptides and incubated in the continuous presence of 0.5 μg/ml brefeldin-A for 2, 4, 6, and 8 hours. The amount of stable peptide-HLA-A2.1 complexes was estimated as described above by indirect immunofluorescence analysis. The half time of complexes is an estimate of the time required for a 50% reduction of the time 0 mean intensity of fluorescence value.\nThe immunogenicity of MHC class I-restricted peptides requires the capacity to bind and stabilize MHC class I molecules on the live cell surface. Moreover the computer prediction models above have only 60-80% predictive accuracy. Direct measurement of the strength of the interaction between the peptides and the HLA-A0201 molecule was made using a conventional binding and stabilization assay that uses the antigen-transporting deficient (TAP2-) HLA-A0201 human T2 cells. T2 cells lack TAP function and consequently are defective in properly loading class I molecules with antigenic peptides generated in the cytosol. The association of exogenously added peptides with thermolabile, empty HLA-A2 molecules stabilizes them and results in an increase in the level of surface HLA-A0201 recognizable by specific mAb such as BB7.2."}, "CD3+ T cells": {"test_system": "CD3+ T cells", "test": "Gamma interferon ELISPOT, CD3+ T cells after in vitro peptide stimulation", "assay_type": "cell-based, human", "conditions": "healthy HLA A0201 donors"}, "HLA A0201": {"target": "HLA A0201 (Homo sapiens, UniProt P04439, D140Y/D185E/D98H/E176V/E277Q/G131W/G231S/I119V/I121R/I166T/I218V/L300P/L318F/N151K/N90K/P208A/P217A/Q86G/Q94H/R138H/R169H/T345S)", "test": "BIMAS predicted binding score for HLA A0201", "conditions": "p210F versus native CMLA2", "experimental": "The synthetic peptide analogue segments are designed by making one or two amino acid substitutions in anchor or auxiliary residues. Although the native peptides particularly described herein are nonamers encompassing the anchor or auxiliary residues, analogues may be designed having about 70% to about 130% of the amino acids in the native peptide. In the instant invention the synthetic peptide analogues may have about 8-12 amino acids. Such substitutions are determined by a bioinformatic model system (BIMAS) which uses a matrix approach to predict binding and ranks the peptides based on predicted binding to the HLA molecule. The amino acid sequences and predicted score for binding to HLA A0201 and HLA A0301 are generated by online software BIMAS available at http://bimas.dcrt.nih.gov/cgi-bin/molbio/ken parker comboform and […] available at http://syfpeithi.bmi-heidelberg.com/.\nBased on this information and by using the software of the Bioinformatics & Molecular Analysis Section (National Institutes of Health, Washington, D.C.) available at http://bimas.dcrt.nih.gov/cgi-bin/molbio/ken parker comboform. This software ranks 9-mer or 10-mer peptides on a predicted half-time dissociation coefficient from HLA class I molecules (Pinilla, et al. Curr Opin Immunol, 11(2): p. 193-202 (1999)). […]"}},
  "note": "Residues, ends and D or L forms follow the SMILES beside them.",
  "data": [
    {"compound": "CC[C@H](C)[C@H](NC(=O)[C@H](CC(C)C)NC(=O)[C@@H](N)Cc1ccc(O)cc1)C(=O)N[C@@H](CC(N)=O)C(=O)N[C@@H](CCCCN)C(=O)N[C@@H](CCC(=O)O)C(=O)N[C@@H](CCC(=O)O)C(=O)N[C@@H](C)C(=O)N[C@@H](CC(C)C)C(=O)O", "note": "[b3a2 A3, YLINKEEAL] (H-YLINKEEAL-OH; N-terminus and C-terminus assumed)", "values": [
      {"measurement": "cytotoxicity against CML cells expressing b3a2 or b2a2", "setting": "[1]", "result": "Significant cytotoxicity was generated"}
    ]},
    {"compound": "CC(C)C[C@H](NC(=O)[C@H](CC(C)C)NC(=O)[C@@H](N)CCCCN)C(=O)N[C@@H](CCC(N)=O)C(=O)N[C@@H](CCCNC(=N)N)C(=O)N1CCC[C@H]1C(=O)N[C@H](C(=O)N[C@@H](C)C(=O)N[C@H](C(=O)O)C(C)C)C(C)C", "note": "[p210C] (H-KLLQRPVAV-OH; N-terminus and C-terminus assumed)", "values": [
      {"measurement": "cytotoxicity against CML cells expressing b3a2 or b2a2", "setting": "[1]", "result": "Significant cytotoxicity was generated"}
    ]},
    {"compound": "KLSSKALQV (analogue peptide p210B)", "values": [
      {"measurement": "immune response, IFN gamma secretion", "setting": "CD8+ T cells", "result": "No immune response could be generated"}
    ]},
    {"compound": "KQSSKALQV (analogue peptide p210A)", "values": [
      {"measurement": "immune response, IFN gamma secretion", "setting": "CD8+ T cells", "result": "No immune response could be generated"}
    ]},
    {"compound": "SSKALQRPV (native peptide CMLA2) [reference compound]", "values": [
      {"measurement": "binding to HLA A0201 molecules in T2 assay", "setting": "[2]", "result": "weak binder"},
      {"measurement": "binding to HLA A0201 molecules in T2 assay", "setting": "[2]; listed as CML A2", "result": "natural weak binder"}
    ]},
    {"compound": "TLFKQSSKV (analogue peptide p210D)", "values": [
      {"measurement": "immune response, IFN gamma secretion", "setting": "CD8+ T cells", "result": "produced an immune response in some of the donors tested"}
    ]},
    {"compound": "YLFKQSSKV (analogue peptide p210E)", "values": [
      {"measurement": "immune response, IFN gamma secretion", "setting": "CD8+ T cells", "result": "produced an immune response in some of the donors tested"}
    ]},
    {"compound": "YLGATLKGV (analogue peptide WT-1 D1)", "values": [
      {"measurement": "binding to HLA A0201, thermostabilization on T2", "setting": "[2]; WT-1 peptides", "result": "significantly higher level of binding to HLA-A0201 over WT1-D"}
    ]},
    {"compound": "YLINKEEAV (analogue peptide b3a2 A4)", "values": [
      {"measurement": "immune response, gamma interferon secretion", "setting": "CD3+ T cells", "result": "generated an immune response in two healthy donors"}
    ]},
    {"compound": "YLINKVEAL (analogue peptide b3a2 A5)", "values": [
      {"measurement": "immune response, gamma interferon secretion", "setting": "CD3+ T cells", "result": "generated an immune response in two healthy donors"}
    ]},
    {"compound": "YLKALQRPV (analogue peptide p210F)", "values": [
      {"measurement": "immune response, IFN gamma secretion", "setting": "CD8+ T cells", "result": "generated a more consistent and higher immune-responses"},
      {"measurement": "BIMAS prediction improvement", "setting": "HLA A0201", "result": 700, "unit": "fold"},
      {"measurement": "binding to HLA A0201 molecules in T2 assay", "setting": "[2]", "result": "excellent avidity for HLA A0201 molecules"}
    ]}
  ]
}
